Results published in patent US11547663B2, “Unit aerosol doses for anticoagulation” (InCarda Therapeutics, Inc., priority 2015, dated 2023).
Where two headings read alike, the source gives them in different places.

How the values were obtained:
[1] = Dog study summary: effect of inhaled anticoagulant on tested biomarkers; assay type: in vivo; settings: inhaled (IT)
Method: (§1) To assess the efficacy of anticoagulants delivered via intratracheal (IT) inhalation, four different anticoagulants were tested in a dog study.
(§2) PK as well as biomarkers of blood in the Left Atrium (LA) and Coronary Sinus (CS) were monitored. These locations were chosen as these are the sites whereby clot formation occurs that leads to Myocardial Infarction or results in stroke.
(§3) These drugs and doses were selected to represent a wide spectrum of anticoagulant classes. One anticoagulant was tested in one dog on each arm of this study.
The standard laboratory tests commonly used to evaluate the efficacy of anticoagulants are the following:
The first test, ACT, was the key in the management of ACS. The latter three tests provided information regarding the prevention of clot formation and growth of an existing clot. The table below summarizes the measurements performed for each anticoagulant in the study.

[2] = cited from earlier work
[3] = tested on: intrinsic system; test: Activated Partial Thromboplastin Time (aPTT or PTT) in dog blood after IV or IT anticoagulant; assay type: in vivo; settings: for PTTCS: Coronary Sinus; for PTT LA: Left Atrium
Method: as §1, §2, §3
(§4) Factor Xa inhibition; Prothrombin Time (PT): measures the integrity of the extrinsic system as well as factors common to both systems; and Activated Partial Thromboplastin Time (aPTT or PTT): measures the integrity of the intrinsic system and the common components and factor-Xa inhibition.
(§5) Measurements were performed in the blood collected from Left Atrium (LA) and in the Coronary sinus (CS)—the targets for stroke prevention and Myocardial Infarction (MI), respectively.

[4] = tested on: extrinsic system; test: Prothrombin Time (PT) in dog blood after IV or IT anticoagulant; assay type: in vivo; settings: for PTCS: Coronary Sinus; for PT LA: Left Atrium
Method: as §1, §2, §3, §4, §5

[5] = tested on: intrinsic pathway; test: Activated clotting time (ACT) in dog blood after IV or IT anticoagulant; assay type: in vivo; settings: for ACT LA: Left Atrium
Method: To assess the efficacy of anticoagulants delivered via intratracheal (IT) inhalation, four different anticoagulants were tested in a dog study. PK as well as biomarkers of blood in the Left Atrium (LA) and Coronary Sinus (CS) were monitored. These locations were chosen as these are the sites whereby clot formation occurs that leads to Myocardial Infarction or results in stroke. These drugs and doses were selected to represent a wide spectrum of anticoagulant classes. One anticoagulant was tested in one dog on each arm of this study. Activated clotting time (ACT), measures the time in seconds needed for whole blood to clot upon exposure to an activator of an intrinsic pathway by the addition of such as factor XII activators. Measurements were performed in the blood collected from Left Atrium (LA) and in the Coronary sinus (CS)—the targets for stroke prevention and Myocardial Infarction (MI), respectively.

[6] = IT Bivalirudin 2 mg/kg, 0 min (baseline)
[7] = IT Bivalirudin 8 mg/kg, 0 min (baseline)
[8] = IV Bivalirudin 2 mg/kg, 0 min (baseline)

Bivalirudin
effect of inhaled drug on tested biomarkers (summary) [1]: showed NO
half-life ([2]; as stated in b199): 1 to 2 h
half-life ([2]; as stated in b211): 2 to 4 h
effect on aPTT ([3]; IT (inhaled)): NO effect
PTTCS [3, 6]: 8.4 s
PTTCS ([3]; IT Bivalirudin 2 mg/kg, 3 min): 120 s
PTTCS ([3]; IT Bivalirudin 2 mg/kg, 15 min): 120 s
PTTCS ([3]; IT Bivalirudin 2 mg/kg, 60 min): 10.7 s
PTT LA [3, 6]: 8.4 s
PTT LA ([3]; IT Bivalirudin 2 mg/kg, 1 min): 8.3 s
PTT LA ([3]; IT Bivalirudin 2 mg/kg, 3 min): 9.1 s
PTT LA ([3]; IT Bivalirudin 2 mg/kg, 5 min): 8.8 s
PTT LA ([3]; IT Bivalirudin 2 mg/kg, 10 min): 11.5 s
PTT LA ([3]; IT Bivalirudin 2 mg/kg, 15 min): 9.4 s
PTT LA ([3]; IT Bivalirudin 2 mg/kg, 30 min): 8.2 s
PTT LA ([3]; IT Bivalirudin 2 mg/kg, 60 min): 11.9 s
PTTCS [3, 7]: 12.5 s
PTTCS ([3]; IT Bivalirudin 8 mg/kg, 3 min): 8.1 s
PTTCS ([3]; IT Bivalirudin 8 mg/kg, 15 min): 120 s
PTTCS ([3]; IT Bivalirudin 8 mg/kg, 60 min): 21.3 s
PTT LA [3, 7]: 10.3 s
PTT LA ([3]; IT Bivalirudin 8 mg/kg, 1 min): 8.4 s
PTT LA ([3]; IT Bivalirudin 8 mg/kg, 3 min): 11.9 s
PTT LA ([3]; IT Bivalirudin 8 mg/kg, 5 min): 11.3 s
PTT LA ([3]; IT Bivalirudin 8 mg/kg, 10 min): 9.5 s
PTT LA ([3]; IT Bivalirudin 8 mg/kg, 15 min): 9.6 s
PTT LA ([3]; IT Bivalirudin 8 mg/kg, 30 min): 9.9 s
PTT LA ([3]; IT Bivalirudin 8 mg/kg, 60 min): 13 s
effect on aPTT ([3]; IV): prolonged
PTTCS [3, 8]: 10.6 s
PTTCS ([3]; IV Bivalirudin 2 mg/kg, 3 min): 35.1 s
PTTCS ([3]; IV Bivalirudin 2 mg/kg, 15 min): 120 s
PTTCS ([3]; IV Bivalirudin 2 mg/kg, 60 min): 120 s
PTT LA [3, 8]: 9.7 s
PTT LA ([3]; IV Bivalirudin 2 mg/kg, 1 min): 42.4 s
PTT LA ([3]; IV Bivalirudin 2 mg/kg, 3 min): 36 s
PTT LA ([3]; IV Bivalirudin 2 mg/kg, 5 min): 26.3 s
PTT LA ([3]; IV Bivalirudin 2 mg/kg, 10 min): 23.8 s
PTT LA ([3]; IV Bivalirudin 2 mg/kg, 15 min): 19.1 s
PTT LA ([3]; IV Bivalirudin 2 mg/kg, 30 min): 15.7 s
PTT LA ([3]; IV Bivalirudin 2 mg/kg, 60 min): 11 s
effect on PT ([4]; IT (inhaled)): NO effect
PTCS [4, 6]: 6.75 s
PTCS ([4]; IT Bivalirudin 2 mg/kg, 3 min): 5.45 s
PTCS ([4]; IT Bivalirudin 2 mg/kg, 15 min): 9.3 s
PTCS ([4]; IT Bivalirudin 2 mg/kg, 60 min): 6.3 s
PT LA [4, 6]: 6.1 s
PT LA ([4]; IT Bivalirudin 2 mg/kg, 1 min): 6 s
PT LA ([4]; IT Bivalirudin 2 mg/kg, 3 min): 5.4 s
PT LA ([4]; IT Bivalirudin 2 mg/kg, 5 min): 5.8 s
PT LA ([4]; IT Bivalirudin 2 mg/kg, 10 min): 6.2 s
PT LA ([4]; IT Bivalirudin 2 mg/kg, 15 min): 5.7 s
PT LA ([4]; IT Bivalirudin 2 mg/kg, 30 min): 5.8 s
PT LA ([4]; IT Bivalirudin 2 mg/kg, 60 min): 7.2 s
PTCS [4, 7]: 6.5 s
PTCS ([4]; IT Bivalirudin 8 mg/kg, 3 min): 5.5 s
PTCS ([4]; IT Bivalirudin 8 mg/kg, 15 min): 7 s
PTCS ([4]; IT Bivalirudin 8 mg/kg, 60 min): 5.5 s
PT LA [4, 7]: 6.4 s
PT LA ([4]; IT Bivalirudin 8 mg/kg, 1 min): 6.1 s
PT LA ([4]; IT Bivalirudin 8 mg/kg, 3 min): 6.9 s
PT LA ([4]; IT Bivalirudin 8 mg/kg, 5 min): 6.3 s
PT LA ([4]; IT Bivalirudin 8 mg/kg, 10 min): 7 s
PT LA ([4]; IT Bivalirudin 8 mg/kg, 15 min): 6.7 s
PT LA ([4]; IT Bivalirudin 8 mg/kg, 30 min): 6.6 s
PT LA ([4]; IT Bivalirudin 8 mg/kg, 60 min): 5.9 s
effect on PT ([4]; IV): prolonged
PTCS [4, 8]: 5.8 s
PTCS ([4]; IV Bivalirudin 2 mg/kg, 3 min): 25 s
PTCS ([4]; IV Bivalirudin 2 mg/kg, 15 min): 17.2 s
PTCS ([4]; IV Bivalirudin 2 mg/kg, 60 min): 6 s
PT LA [4, 8]: 5.8 s
PT LA ([4]; IV Bivalirudin 2 mg/kg, 1 min): 34.6 s
PT LA ([4]; IV Bivalirudin 2 mg/kg, 3 min): 28.8 s
PT LA ([4]; IV Bivalirudin 2 mg/kg, 5 min): 20.8 s
PT LA ([4]; IV Bivalirudin 2 mg/kg, 10 min): 17.4 s
PT LA ([4]; IV Bivalirudin 2 mg/kg, 15 min): 12.1 s
PT LA ([4]; IV Bivalirudin 2 mg/kg, 30 min): 7.6 s
PT LA ([4]; IV Bivalirudin 2 mg/kg, 60 min): 6.4 s
effect on ACT ([5]; IT (inhaled)): NO effect
effect on ACT ([5]; IT (inhaled), listed as bivalirudin): no prolongation
ACT LA [5, 6]: 90 s
ACT LA ([5]; IT Bivalirudin 2 mg/kg, 1 min): 95 s
ACT LA ([5]; IT Bivalirudin 2 mg/kg, 3 min): 95 s
ACT LA ([5]; IT Bivalirudin 2 mg/kg, 5 min): 101 s
ACT LA ([5]; IT Bivalirudin 2 mg/kg, 10 min): 101 s
ACT LA ([5]; IT Bivalirudin 2 mg/kg, 15 min): 95 s
ACT LA ([5]; IT Bivalirudin 2 mg/kg, 30 min): 95 s
ACT LA ([5]; IT Bivalirudin 2 mg/kg, 60 min): 95 s
ACT LA [5, 7]: 78 s
ACT LA ([5]; IT Bivalirudin 8 mg/kg, 1 min): 95 s
ACT LA ([5]; IT Bivalirudin 8 mg/kg, 3 min): 89 s
ACT LA ([5]; IT Bivalirudin 8 mg/kg, 5 min): 90 s
ACT LA ([5]; IT Bivalirudin 8 mg/kg, 10 min): 89 s
ACT LA ([5]; IT Bivalirudin 8 mg/kg, 15 min): 90 s
ACT LA ([5]; IT Bivalirudin 8 mg/kg, 30 min): 90 s
ACT LA ([5]; IT Bivalirudin 8 mg/kg, 60 min): 89 s
effect on ACT ([5]; IV): prolonged
ACT LA [5, 8]: 106 s
ACT LA ([5]; IV Bivalirudin 2 mg/kg, 1 min): 242 s
ACT LA ([5]; IV Bivalirudin 2 mg/kg, 3 min): 214 s
ACT LA ([5]; IV Bivalirudin 2 mg/kg, 5 min): 203 s
ACT LA ([5]; IV Bivalirudin 2 mg/kg, 10 min): 174 s
ACT LA ([5]; IV Bivalirudin 2 mg/kg, 15 min): 168 s
ACT LA ([5]; IV Bivalirudin 2 mg/kg, 30 min): 135 s
ACT LA ([5]; IV Bivalirudin 2 mg/kg, 60 min): 106 s
